Test results: ChEMBL document CHEMBL1155905, “Carbonic anhydrase inhibitors. Interaction of the antitumor sulfamate EMD 486019 with twelve mammalian carbonic anhydrase isoforms: Kinetic and X-ray crystallographic studies” (Bioorg Med Chem Lett, 2008)

What was measured:
Carbonic anhydrase 1 = Carbonic anhydrase 1 (Homo sapiens, UniProt P00915)
Description: Inhibition of human cloned CA1 by stopped-flow CO2 hydration method

Carbonic anhydrase 13 = Carbonic anhydrase 13 (Mus musculus, UniProt Q9D6N1)
Description: Inhibition of mouse CA13 by stopped-flow CO2 hydration method

[1] = target: Carbonic anhydrase 5B, mitochondrial (Homo sapiens, UniProt Q9Y2D0)
Carbonic anhydrase 6 = Carbonic anhydrase 6 (Homo sapiens, UniProt P23280)
Description: Inhibition of human cloned CA6 by stopped-flow CO2 hydration method

Carbonic anhydrase 9 = Carbonic anhydrase 9 (Homo sapiens, UniProt Q16790)
Description: Inhibition of human cloned CA9 catalytic domain by stopped-flow CO2 hydration method

[2] = target: Carbonic anhydrase 5A, mitochondrial (Homo sapiens, UniProt P35218)
Carbonic anhydrase 14 = Carbonic anhydrase 14 (Homo sapiens, UniProt Q9ULX7)
Carbonic anhydrase 12 = Carbonic anhydrase 12 (Homo sapiens, UniProt O43570)
Description: Inhibition of human cloned CA12 catalytic domain by stopped-flow CO2 hydration method

Carbonic anhydrase 4 = Carbonic anhydrase 4 (Homo sapiens, UniProt P22748)
Carbonic anhydrase 3 = Carbonic anhydrase 3 (Homo sapiens, UniProt P07451)
Description: Inhibition of human cloned CA3 by stopped-flow CO2 hydration method

Carbonic anhydrase 7 = Carbonic anhydrase 7 (Homo sapiens, UniProt P43166); test: Inhibition of human cloned CA7 by stopped-flow CO2 hydration method
Carbonic anhydrase 7, sequence (P43166 whole entry): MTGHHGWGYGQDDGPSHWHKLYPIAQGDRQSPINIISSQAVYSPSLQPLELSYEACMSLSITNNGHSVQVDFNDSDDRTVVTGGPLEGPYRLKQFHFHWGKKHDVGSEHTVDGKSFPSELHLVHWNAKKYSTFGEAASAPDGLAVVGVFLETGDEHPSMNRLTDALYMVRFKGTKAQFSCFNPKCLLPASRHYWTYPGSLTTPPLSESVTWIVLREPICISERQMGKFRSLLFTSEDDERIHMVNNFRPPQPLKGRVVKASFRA

Carbonic anhydrase 1, sequence (P00915 whole entry): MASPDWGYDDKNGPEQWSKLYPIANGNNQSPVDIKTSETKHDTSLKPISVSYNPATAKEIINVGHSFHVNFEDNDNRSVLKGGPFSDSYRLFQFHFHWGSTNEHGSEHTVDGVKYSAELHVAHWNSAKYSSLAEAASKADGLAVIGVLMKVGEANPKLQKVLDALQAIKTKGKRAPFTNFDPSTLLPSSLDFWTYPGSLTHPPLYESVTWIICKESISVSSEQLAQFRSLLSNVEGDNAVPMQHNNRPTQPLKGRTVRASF
Carbonic anhydrase 5B, mitochondrial, sequence (Q9Y2D0 whole entry): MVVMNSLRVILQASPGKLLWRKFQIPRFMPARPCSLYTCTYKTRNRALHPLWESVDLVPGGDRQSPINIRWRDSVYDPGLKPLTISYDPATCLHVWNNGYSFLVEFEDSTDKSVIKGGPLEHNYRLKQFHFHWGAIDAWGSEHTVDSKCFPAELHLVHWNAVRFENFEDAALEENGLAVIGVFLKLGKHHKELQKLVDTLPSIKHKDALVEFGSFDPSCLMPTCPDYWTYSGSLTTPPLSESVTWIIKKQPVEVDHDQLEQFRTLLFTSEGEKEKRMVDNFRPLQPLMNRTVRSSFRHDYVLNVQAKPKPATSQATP
Carbonic anhydrase 5A, mitochondrial, sequence (P35218 whole entry): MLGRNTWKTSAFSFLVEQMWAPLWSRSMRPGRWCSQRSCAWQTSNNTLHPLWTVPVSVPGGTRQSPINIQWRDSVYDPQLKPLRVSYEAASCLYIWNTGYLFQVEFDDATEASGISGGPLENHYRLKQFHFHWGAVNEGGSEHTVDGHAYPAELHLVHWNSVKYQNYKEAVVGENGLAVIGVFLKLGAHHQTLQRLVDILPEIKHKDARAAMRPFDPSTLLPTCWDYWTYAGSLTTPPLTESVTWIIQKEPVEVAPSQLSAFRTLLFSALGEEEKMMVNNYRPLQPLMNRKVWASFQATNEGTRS
Carbonic anhydrase 4, sequence (P22748 whole entry): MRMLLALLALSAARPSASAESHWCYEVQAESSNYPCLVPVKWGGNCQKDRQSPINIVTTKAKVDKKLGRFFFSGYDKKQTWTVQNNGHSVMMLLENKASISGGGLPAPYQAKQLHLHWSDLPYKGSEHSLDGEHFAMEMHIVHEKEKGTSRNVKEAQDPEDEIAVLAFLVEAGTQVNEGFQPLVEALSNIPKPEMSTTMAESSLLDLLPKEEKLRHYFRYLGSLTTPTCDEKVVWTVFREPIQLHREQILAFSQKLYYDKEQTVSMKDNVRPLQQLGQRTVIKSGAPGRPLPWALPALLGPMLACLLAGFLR
Carbonic anhydrase 6, sequence (P23280 whole entry): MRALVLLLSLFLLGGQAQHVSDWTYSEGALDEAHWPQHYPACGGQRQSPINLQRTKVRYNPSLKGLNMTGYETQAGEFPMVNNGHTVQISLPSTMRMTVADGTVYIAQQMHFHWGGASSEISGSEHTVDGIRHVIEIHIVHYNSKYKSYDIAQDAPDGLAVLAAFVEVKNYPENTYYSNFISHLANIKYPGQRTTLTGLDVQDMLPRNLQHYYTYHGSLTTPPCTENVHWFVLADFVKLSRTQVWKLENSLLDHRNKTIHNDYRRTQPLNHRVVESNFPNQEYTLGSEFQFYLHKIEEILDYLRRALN
Carbonic anhydrase 14, sequence (Q9ULX7 whole entry): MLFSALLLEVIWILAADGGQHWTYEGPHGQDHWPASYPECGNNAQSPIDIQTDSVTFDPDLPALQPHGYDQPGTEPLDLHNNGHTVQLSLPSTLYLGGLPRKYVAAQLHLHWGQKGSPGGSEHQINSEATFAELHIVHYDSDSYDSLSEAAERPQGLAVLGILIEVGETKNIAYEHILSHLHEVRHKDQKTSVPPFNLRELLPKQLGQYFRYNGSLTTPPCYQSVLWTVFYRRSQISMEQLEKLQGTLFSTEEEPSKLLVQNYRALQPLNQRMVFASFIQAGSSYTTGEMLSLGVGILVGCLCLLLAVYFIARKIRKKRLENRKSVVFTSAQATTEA
Carbonic anhydrase 3, sequence (P07451 whole entry): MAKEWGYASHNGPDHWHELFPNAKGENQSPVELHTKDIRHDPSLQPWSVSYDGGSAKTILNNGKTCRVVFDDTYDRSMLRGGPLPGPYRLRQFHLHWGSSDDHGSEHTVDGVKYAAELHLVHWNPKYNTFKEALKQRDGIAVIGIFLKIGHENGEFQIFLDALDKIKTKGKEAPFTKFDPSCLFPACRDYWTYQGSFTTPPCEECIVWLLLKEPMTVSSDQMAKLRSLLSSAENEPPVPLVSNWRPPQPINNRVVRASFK
Carbonic anhydrase 12, sequence (O43570 whole entry): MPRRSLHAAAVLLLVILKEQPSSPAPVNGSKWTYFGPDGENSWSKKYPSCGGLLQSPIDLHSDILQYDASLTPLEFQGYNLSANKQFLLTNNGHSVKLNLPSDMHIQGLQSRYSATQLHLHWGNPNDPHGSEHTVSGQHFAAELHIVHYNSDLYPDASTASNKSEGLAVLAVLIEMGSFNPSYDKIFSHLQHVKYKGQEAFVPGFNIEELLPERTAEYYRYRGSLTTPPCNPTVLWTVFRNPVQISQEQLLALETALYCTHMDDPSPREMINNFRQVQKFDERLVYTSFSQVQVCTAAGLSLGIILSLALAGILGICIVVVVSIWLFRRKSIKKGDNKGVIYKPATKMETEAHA
Carbonic anhydrase 13, sequence (Q9D6N1 whole entry): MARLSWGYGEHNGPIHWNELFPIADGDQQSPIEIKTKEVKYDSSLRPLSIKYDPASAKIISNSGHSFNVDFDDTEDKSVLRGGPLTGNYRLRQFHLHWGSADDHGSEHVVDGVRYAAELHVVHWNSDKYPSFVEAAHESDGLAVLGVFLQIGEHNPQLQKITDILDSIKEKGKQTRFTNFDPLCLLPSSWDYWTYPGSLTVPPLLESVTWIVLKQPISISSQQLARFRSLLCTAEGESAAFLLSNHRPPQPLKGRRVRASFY

How did the Ki (Carbonic anhydrase 1) turn out when NS(=O)(=O)Oc1ccc2c(c1)S(=O)(=O)C(CC1CCCCCC1)=C2 was run?
Its Ki is 3600 nM.

What about the Ki (Carbonic anhydrase 13) of the same compound?
The Ki was 66 nM.

What about the Ki [1] of the same compound?
Its Ki is 18 nM.

What about the Ki (Carbonic anhydrase 6) of the same compound?
Its Ki is 654 nM.

What about the Ki (Carbonic anhydrase 9) of the same compound?
Its Ki is 18 nM.

What about the Ki [2] of the same compound?
Its Ki is 682 nM.

And the Ki (Carbonic anhydrase 14)?
Its Ki is 13 nM.

What about the Ki (Carbonic anhydrase 12) of the same compound?
The Ki was 13 nM.

What about the Ki (Carbonic anhydrase 4) of the same compound?
Its Ki is 842 nM.

And the Ki (Carbonic anhydrase 3)?
Its Ki is 740000 nM.

NS(=O)(=O)Oc1ccc2c3c(c(=O)oc2c1)CCCCC3 [IROSUSTAT] was tested. Which Ki (Carbonic anhydrase 1) did it give?
The Ki was 3450 nM.

And the Ki (Carbonic anhydrase 13)?
Its Ki is 1050 nM.

What about the Ki [1] of the same compound?
Its Ki is 720 nM.

And the Ki (Carbonic anhydrase 6)?
Its Ki is 653 nM.

What about the Ki (Carbonic anhydrase 7) of the same compound?
The Ki was 23 nM.

What about the Ki (Carbonic anhydrase 9) of the same compound?
Its Ki is 34 nM.

What about the Ki [2] of the same compound?
Its Ki is 765 nM.

What about the Ki (Carbonic anhydrase 14) of the same compound?
The Ki was 755 nM.

What about the Ki (Carbonic anhydrase 12) of the same compound?
The Ki was 12 nM.

And the Ki (Carbonic anhydrase 4)?
Its Ki is 24 nM.

What about the Ki (Carbonic anhydrase 3) of the same compound?
Its Ki is 700000 nM.
